Measured values taken from ChEMBL document CHEMBL4196233, “Ribosome-Templated Azide-Alkyne Cycloadditions Using Resistant Bacteria as Reaction Vessels: in Cellulo Click Chemistry” (2018).
Values after ≈ are worked out from the molar mass of the structure shown.

System: Staphylococcus aureus
Test: Antimicrobial activity against Staphylococcus aureus UCN18 measured after 18 hrs
Assay type: functional
Conditions: UCN18, 18 h

Structure (SMILES) | MIC [µg/mL]
CC[C@H]1OC(=O)[C@@](C)(F)C(=O)[C@H](C)[C@@H](O[C@@H]2O[C@H](C)C[C@H](N(C)C)[C@H]2O)[C@](C)(OC)C[C@@H](C)C(=O)[C@H](C)[C@H]2N(CCCCn3cc(-c4cccc(C(F)(F)F)c4)nn3)C(=O)O[C@]12C | 32 (≈ 35.6 µM)
CC[C@H]1OC(=O)[C@@](C)(F)C(=O)[C@H](C)[C@@H](O[C@@H]2O[C@H](C)C[C@H](N(C)C)[C@H]2O)[C@](C)(OC)C[C@@H](C)C(=O)[C@H](C)[C@H]2N(CCCCn3cc(COc4ccccc4)nn3)C(=O)O[C@]12C | 4 (≈ 4.65 µM)
CC[C@H]1OC(=O)[C@@](C)(F)C(=O)[C@H](C)[C@@H](O[C@@H]2O[C@H](C)C[C@H](N(C)C)[C@H]2O)[C@](C)(OC)C[C@@H](C)C(=O)[C@H](C)[C@H]2N(CCCCn3cc(C(O)(CC)CC)nn3)C(=O)O[C@]12C | 128 (≈ 152 µM)
CC[C@H]1OC(=O)[C@@](C)(F)C(=O)[C@H](C)[C@@H](O[C@@H]2O[C@H](C)C[C@H](N(C)C)[C@H]2O)[C@](C)(OC)C[C@@H](C)C(=O)[C@H](C)[C@H]2N(CCCCn3cc(-c4cccc(N)c4)nn3)C(=O)O[C@]12C [SOLITHROMYCIN] | 2 (≈ 2.37 µM)
CC[C@H]1OC(=O)[C@@](C)(F)C(=O)[C@H](C)[C@@H](O[C@@H]2O[C@H](C)C[C@H](N(C)C)[C@H]2O)[C@](C)(OC)C[C@@H](C)C(=O)[C@H](C)[C@H]2N(CCCCn3cc(CN4CCNCC4)nn3)C(=O)O[C@]12C | 128 (≈ 150 µM)
CC[C@H]1OC(=O)[C@@](C)(F)C(=O)[C@H](C)[C@@H](O[C@@H]2O[C@H](C)C[C@H](N(C)C)[C@H]2O)[C@](C)(OC)C[C@@H](C)C(=O)[C@H](C)[C@H]2N(CCCCn3cc(-c4cccc(O)c4)nn3)C(=O)O[C@]12C | 8 (≈ 9.46 µM)
CC[C@H]1OC(=O)[C@@](C)(F)C(=O)[C@H](C)[C@@H](O[C@@H]2O[C@H](C)C[C@H](N(C)C)[C@H]2O)[C@](C)(OC)C[C@@H](C)C(=O)[C@H](C)[C@H]2N(CCCCn3cc(-c4ccc(OC)cc4)nn3)C(=O)O[C@]12C | 32 (≈ 37.2 µM)
CC[C@H]1OC(=O)[C@@](C)(F)C(=O)[C@H](C)[C@@H](O[C@@H]2O[C@H](C)C[C@H](N(C)C)[C@H]2O)[C@](C)(OC)C[C@@H](C)C(=O)[C@H](C)[C@H]2N(CCCCn3cc(COc4ccc(OC)cc4)nn3)C(=O)O[C@]12C | 16 (≈ 18 µM)
CC[C@H]1OC(=O)[C@@](C)(F)C(=O)[C@H](C)[C@@H](O[C@@H]2O[C@H](C)C[C@H](N(C)C)[C@H]2O)[C@](C)(OC)C[C@@H](C)C(=O)[C@H](C)[C@H]2N(CCCCn3cc(-c4cccnc4)nn3)C(=O)O[C@]12C | 16 (≈ 19.3 µM)
CC[C@H]1OC(=O)[C@@](C)(F)C(=O)[C@H](C)[C@@H](O[C@@H]2O[C@H](C)C[C@H](N(C)C)[C@H]2O)[C@](C)(OC)C[C@@H](C)C(=O)[C@H](C)[C@H]2N(CCCCN=[N+]=[N-])C(=O)O[C@]12C | 256 (≈ 352 µM)
CC[C@H]1OC(=O)[C@@](C)(F)C(=O)[C@H](C)[C@@H](O[C@@H]2O[C@H](C)C[C@H](N(C)C)[C@H]2O)[C@](C)(OC)C[C@@H](C)C(=O)[C@H](C)[C@H]2N(CCCCn3cc(-c4ccc(N(C)C)cc4)nn3)C(=O)O[C@]12C | 32 (≈ 36.7 µM)
CC[C@H]1OC(=O)[C@@](C)(F)C(=O)[C@H](C)[C@@H](O[C@@H]2O[C@H](C)C[C@H](N(C)C)[C@H]2O)[C@](C)(OC)C[C@@H](C)C(=O)[C@H](C)[C@H]2N(CCCCn3cc(-c4ccccc4F)nn3)C(=O)O[C@]12C | 8 (≈ 9.43 µM)
